Reference: ChEMBL document CHEMBL1201862, “PubChem BioAssay data set” (2004)
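96-well plates; 48 h exposure; 5 concentrations. Endpoints by linear interpolation between flanking doses. Not reached: highest tested concentration assigned. Abbreviation: GI50, concentration required for 50% inhibition of growth.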 Active and inactive are the calls of the source. Rule as the data show it: active = GI50 up to about 1.1 µM and inactive = higher.

Experiments:
Test in all cases: inhibition of tumour cell growth, NCI panel, 48 h
HOP-92 = tested on: HOP-92
HCC 2998 = tested on: HCC 2998
Hs-578T = tested on: Hs-578T
SNB-19 = tested on: SNB-19
MDA-N = tested on: MDA-N
SF-539 = tested on: SF-539
PC-3 = tested on: PC-3
SF-268 = tested on: SF-268
786-0 = tested on: 786-0
NCI-H226 = tested on: NCI-H226
HCT-15 = tested on: HCT-15
K562 = tested on: K562
NCI-H460 = tested on: NCI-H460
SK-OV-3 = tested on: SK-OV-3
MCF7 = tested on: MCF7
OVCAR-5 = tested on: OVCAR-5
UACC-62 = tested on: UACC-62
SNB-75 = tested on: SNB-75
RPMI-8226 = tested on: RPMI-8226

## CN(C)c1ccc(/C=C(\C#N)C(N)=C(C#N)C#N)cc1
HOP-92
  GI50: > 100 µM (inactive)
HCC 2998
  GI50: > 100 µM (inactive)
Hs-578T
  GI50: > 100 µM (inactive)
SNB-19
  GI50: > 100 µM (inactive)
MDA-N
  GI50: > 100 µM (inactive)
SF-539
  GI50: > 100 µM (inactive)
PC-3
  GI50: > 100 µM (inactive)
SF-268
  GI50: > 100 µM (inactive)
786-0
  GI50: > 100 µM (inactive)
NCI-H226
  GI50: > 100 µM (inactive)
HCT-15
  GI50: > 100 µM
K562
  GI50: > 100 µM (inactive)
NCI-H460
  GI50: > 100 µM (inactive)
SK-OV-3
  GI50: > 100 µM (inactive)
MCF7
  GI50: > 100 µM (inactive)
OVCAR-5
  GI50: > 100 µM (inactive)
UACC-62
  GI50: 94 µM (inactive)

## C/C(=N\NC(=O)c1ccncc1)c1ccccc1Cl
HOP-92
  GI50: > 100 µM (inactive)
Hs-578T
  GI50: > 100 µM (inactive)
SNB-19
  GI50: > 100 µM (inactive)
MDA-N
  GI50: > 100 µM (inactive)
SF-539
  GI50: > 100 µM (inactive)
PC-3
  GI50: > 100 µM (inactive)
SF-268
  GI50: > 100 µM (inactive)
786-0
  GI50: > 100 µM (inactive)
NCI-H226
  GI50: > 100 µM (inactive)
HCT-15
  GI50: > 100 µM
K562
  GI50: > 100 µM (inactive)
NCI-H460
  GI50: > 100 µM (inactive)
SK-OV-3
  GI50: > 100 µM (inactive)
SNB-75
  GI50: > 100 µM (inactive)
MCF7
  GI50: > 100 µM (inactive)
OVCAR-5
  GI50: > 100 µM (inactive)
UACC-62
  GI50: > 100 µM (inactive)
RPMI-8226
  GI50: 79.6 µM (inactive)

## CSC1=Nc2ccccc2-c2nc3ccccc3cc2C1
HOP-92
  GI50: > 100 µM (inactive)
HCC 2998
  GI50: > 100 µM (inactive)
Hs-578T
  GI50: > 100 µM (inactive)
SNB-19
  GI50: > 100 µM (inactive)
MDA-N
  GI50: > 100 µM (inactive)
SF-539
  GI50: > 100 µM (inactive)
PC-3
  GI50: > 100 µM (inactive)
SF-268
  GI50: > 100 µM (inactive)
786-0
  GI50: > 100 µM (inactive)
NCI-H226
  GI50: > 100 µM (inactive)
HCT-15
  GI50: > 100 µM
K562
  GI50: > 100 µM (inactive)
NCI-H460
  GI50: > 100 µM (inactive)
SK-OV-3
  GI50: > 100 µM (inactive)
MCF7
  GI50: > 100 µM (inactive)
OVCAR-5
  GI50: > 100 µM (inactive)
UACC-62
  GI50: > 100 µM (inactive)

## C[C@]12CC[C@@H]3c4ccc(OCC(=O)O)cc4CC[C@H]3[C@@H]1CCC2=O
HOP-92
  GI50: > 100 µM (inactive)
Hs-578T
  GI50: > 100 µM (inactive)
SNB-19
  GI50: > 100 µM (inactive)
MDA-N
  GI50: > 100 µM (inactive)
SF-539
  GI50: > 100 µM (inactive)
PC-3
  GI50: > 100 µM (inactive)
SF-268
  GI50: > 100 µM (inactive)
786-0
  GI50: > 100 µM (inactive)
NCI-H226
  GI50: > 100 µM (inactive)
HCT-15
  GI50: > 100 µM
NCI-H460
  GI50: > 100 µM (inactive)
SK-OV-3
  GI50: > 100 µM (inactive)
SNB-75
  GI50: > 100 µM (inactive)
MCF7
  GI50: > 100 µM (inactive)
OVCAR-5
  GI50: > 100 µM (inactive)
UACC-62
  GI50: > 100 µM (inactive)
RPMI-8226
  GI50: > 100 µM (inactive)

## CCOP(=O)(O)CN1CCNCCN(CP(=O)(O)OCC)CCNCC1
HOP-92
  GI50: > 100 µM (inactive)
Hs-578T
  GI50: > 100 µM (inactive)
SNB-19
  GI50: > 100 µM (inactive)
MDA-N
  GI50: > 100 µM (inactive)
SF-539
  GI50: > 100 µM (inactive)
PC-3
  GI50: > 100 µM (inactive)
786-0
  GI50: > 100 µM (inactive)
NCI-H226
  GI50: > 100 µM (inactive)
HCT-15
  GI50: > 100 µM
K562
  GI50: > 100 µM (inactive)
NCI-H460
  GI50: > 100 µM (inactive)
SK-OV-3
  GI50: > 100 µM (inactive)
SNB-75
  GI50: > 100 µM (inactive)
MCF7
  GI50: > 100 µM (inactive)
OVCAR-5
  GI50: > 100 µM (inactive)
UACC-62
  GI50: > 100 µM (inactive)
RPMI-8226
  GI50: > 100 µM (inactive)

## Cc1c(-c2ccccc2)[nH]n(C2=NCCN2)c1=O
HOP-92
  GI50: > 100 µM (inactive)
Hs-578T
  GI50: > 100 µM (inactive)
SNB-19
  GI50: > 100 µM (inactive)
MDA-N
  GI50: > 100 µM (inactive)
SF-539
  GI50: > 100 µM (inactive)
PC-3
  GI50: > 100 µM (inactive)
SF-268
  GI50: > 100 µM (inactive)
786-0
  GI50: > 100 µM (inactive)
NCI-H226
  GI50: 52.8 µM (inactive)
HCT-15
  GI50: > 100 µM
K562
  GI50: > 100 µM (inactive)
NCI-H460
  GI50: 78.7 µM (inactive)
SK-OV-3
  GI50: > 100 µM (inactive)
SNB-75
  GI50: 30.4 µM (inactive)
MCF7
  GI50: > 100 µM (inactive)
OVCAR-5
  GI50: > 100 µM (inactive)
UACC-62
  GI50: > 100 µM (inactive)
RPMI-8226
  GI50: > 100 µM (inactive)
